The results in this text go back to patent US20250345492A1, “AN ANTIBACTERIAL POLYPEPTIDE COMPOUND, A MEDICAL DEVICE, HYDROGEL AND USE THEREOF” (priority 2020, published 2025).

One series can be described thus: Acute toxicity in mice. The arrangement: species or system Kunming mice. Particulars: mouse, in vivo, ip, intraperitoneal injection, Karber method. As for the experimental part:
Acute toxicity of the compounds was determined by measuring the acute toxicity in mice with the compounds.
Taking compounds 2, 8, 9, 13 and 15 of the present invention as examples, […]. The mice used in this test were Kunming mice, which were placed in constant-temperature environment (22±1° C.) and could freely obtain water and food. Simply, 132 healthy Kunming mice were randomly divided into 11 groups, with 12 mice in each group (half male and half female), wherein, 5 groups were intraperitoneally injected with 0.2 ml of the compounds of different doses (100-1000 mg/kg), and the control group was intraperitoneally injected with normal saline. In this experiment, melittin was used as a reference control, and the other 5 groups were intraperitoneally injected with melittin of different doses (10-32 mg/kg). The state of mice was observed and recorded after 2 hours of administration, and then observed twice a day for 14 days, and the survival rates of the mice were recorded.

Series [1] concerns P-2c, clinical isolated drug-resistant strain PA. As to conditions: strain P-2c (PA). The gist of the method:
(§1)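 Log-phase cells grown in MH (bacteria) or SD (fungi) medium at 37 °C were plated at 1×10^5 CFU/ml with 2-fold serially diluted peptide (1-256 μM solutions added at twice final concentration). After 12 h at 37 °C, MIC was taken as the first clear well by eye, in triplicate.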

In series [2] the test system is Staphylococcus aureus (ATCC 29213). Particulars: ATCC 29213. The gist of the method: as §1
Series [3] concerns E-2b, clinical isolated drug-resistant strain ESBL. Particulars: strain E-2b (ESBL). The essentials: as §1
The subject of series [4] is E-4b, clinical isolated drug-resistant strain ESBL. As to conditions: strain E-4b (ESBL). The essentials:
as §1

Series [5] deals with P-1c, clinical isolated drug-resistant strain PA. As to conditions: strain P-1c (PA). The gist of the method: as §1
Series [6] concerns E. coli (ATCC 25922). Particulars: ATCC 25922. The essentials:
as §1

The subject of series [7] is P-5c, clinical isolated drug-resistant strain PA. Particulars: strain P-5c (PA). The essentials:
as §1

Series [8] concerns Cronobacter sakazakii (ATCC 29544). As to conditions: ATCC 29544. The essentials: as §1
For a further series, the system named is C. parapsilosis ATCC2001. Particulars: ATCC2001. The gist of the method:
as §1

Another series relates to C. albicans ATCC14053. As to conditions: ATCC14053. The essentials:
as §1

For series [9], the system named is Pseudomonas aeruginosa (ATCC 27853). Particulars: standard strain. The gist of the method:
as §1

Series [10] concerns P-3c, clinical isolated drug-resistant strain PA. As to conditions: strain P-3c (PA). The essentials: as §1
The subject of the next series is C. glabrata ATCC22019. Particulars: ATCC22019. The essentials: as §1
Series [11] relates to S-4a, clinical isolated drug-resistant strain MRSA. As to conditions: strain S-4a (MRSA). The gist of the method:
as §1

Series [12] relates to Staphylococcus epidermidis (ATCC 12228). Particulars: ATCC 12228. The essentials: as §1
For series [13], the system named is Bacillus subtilis (ATCC 23857). As to conditions: ATCC 23857. The gist of the method: as §1
Series [14] has as its system E-5b, clinical isolated drug-resistant strain ESBL. As to conditions: strain E-5b (ESBL). The essentials:
as §1

Series [15] has as its system S-3a, clinical isolated drug-resistant strain MRSA. As to conditions: strain S-3a (MRSA). The essentials: as §1
In the next series the test system is C. krusei ATCC6258. As to conditions: ATCC6258. The essentials: as §1
The test system of series [16] is P-4c, clinical isolated drug-resistant strain PA. As to conditions: strain P-4c (PA). The essentials: as §1
In the next series the test system is C. tropicalis ATCC750. Particulars: ATCC750. The gist of the method: as §1
For series [17], the system named is S-1a, clinical isolated drug-resistant strain MRSA. As to conditions: strain S-1a (MRSA). The essentials: as §1
Series [18] relates to E-1b, clinical isolated drug-resistant strain ESBL. As to conditions: strain E-1b (ESBL). The gist of the method:
as §1

Series [19] has as its system E-3b, clinical isolated drug-resistant strain ESBL. Particulars: strain E-3b (ESBL). The essentials:
as §1

Series [20] relates to S-2a, clinical isolated drug-resistant strain MRSA. As to conditions: strain S-2a (MRSA). The essentials: as §1
In series [21] the test system is human cervical cancer cell Hela. The series can be described thus: Cytotoxicity, MTT colorimetry. In kind it is cell-based. As for the experimental part:
(§2) For cytotoxicity determination, the MTT colorimetry was used to evaluate the effects of the compounds on the proliferation of human cervical cancer cell Hela, human embryonic renal epithelial cell HEK293 and mouse mononuclear macrophage RAW264.7.
(§3) Taking compounds 2, 8, 9, 13 and 15 of the present invention as examples, the cytotoxicity of the antibacterial polypeptide compounds was analyzed. Three cell lines were employed for the present invention, namely human cervical cancer cell Hela, human embryonic renal epithelial cell HEK293 and mouse mononuclear macrophage RAW264.7. Hela cells were cultured in RPMI 1640 medium with 10% newborn calf serum, HEK293 cells and RAW264.7 cells were cultured in DMEM medium with 10% fetal bovine serum. Simply, cells (1×10^4 cells/well) were inoculated to a 96-well plate and incubated in an incubator set to 5% CO2 at 37° C. After 24 hours, compounds of different concentrations were added and incubated in the 5% CO2 incubator. After 24 hours, 20 μL of MTT solution with a concentration of 5 mg/mL was added to each well and incubated for 4 hours. After that, the medium was removed with a pipet, and 150 μL of DMSO added to dissolve the purple-blue formazan crystals. The solution was shaken in an oscillator for 5 mins before detecting the absorbance value at 570 nm using the ELISA reader, and then the survival rate was calculated with the formula: (OD dosing group/OD control group)×100% (n=3).

Series [22] has as its system human embryonic renal epithelial cell HEK293. Description: Cytotoxicity, MTT colorimetry. Type of series: cell-based. As for the experimental part:
as §2, §3

For series [23], the system named is mouse mononuclear macrophage RAW264.7. The series can be described thus: Cytotoxicity, MTT colorimetry. Type of series: cell-based. As for the experimental part: as §2, §3
In series [24] the test system is E. coli (ATCC 25922). Description: Mouse septic peritonitis model, survival. Type of series: in vivo, Kunming mice. As to conditions: 20 mg/kg intraperitoneally one hour after E. coli inoculation, 7 days of observation. As for the experimental part: The determination of the in vivo antibacterial activity of the antibacterial polypeptide compounds is to reflect the antibacterial activity in vivo by detecting the survival rate of mice infected with bacteria or fungi.
Taking compounds 2, 8, 9, 13 and 15 of the present invention as examples, the in vivo antibacterial effects of the antibacterial polypeptide compounds were analyzed. The mice used in this test were Kunming mice, which were placed in constant-temperature environment (22±1° C.). Simply, 36 Kunming mice (18-22 g of body weight) were randomly divided into 6 groups and intraperitoneally injected with 0.2 ml of 3×10^8 CFU/mL E. coli (ATCC 25922) on Day 1 to establish mouse septic peritonitis model. The mice were administered intraperitoneally one hour after inoculation with the bacteria, and then the compounds 2, 8, 9, 13 and 15 were injected intraperitoneally at a dose of 20 mg/kg of body weight. Polymyxin B (20 mg/kg) was selected as a positive reference control, and a negative control group received intraperitoneal injection of sterile saline. After 7 days of observation, the survival rates of mice in administration groups and control groups were calculated to create survival curves.

Ends that are not written are not given here.

Experimental for mouse red blood cells: The hemolytic activity was determined by measuring a hemolytic concentration for mouse red blood cells with the antibacterial polypeptide compounds.
The mouse red blood cells was diluted to a concentration of 8%, the obtained red blood cell suspension was added to a 96-well plate (100 μL per well), and then 100 μL of one compound was added to a corresponding well. After incubation for 1 hour, the supernatant of each well was added to another 96-well plate, and then the absorbance value of the sample supernatant was measured at 490 nm using a ELISA reader. With regard to the present invention, PBS and 2% Triton-X 100 were used as a negative control and a positive control, separately.

Turning to PWRLRLRL-NH2 [Compound 15], the LD50 in the series “Acute toxicity in mice” is > 1000 mg/kg. Further, the MIC was 8 µM in series [1]; 4 µM in [3]; 4 µM in series [4]; 8 µM in series [5]; 8 µM in series [7]; 8 µM in series [10]. Also, the MIC in series [11] is 8 µM; in series [14] it was 4 µM; in series [15] it was 8 µM; in series [16], 8 µM; in series [17], 8 µM; in series [18], 4 µM. The minimal inhibitory concentration (MIC) in series [19] is 4 µM; in series [20], 8 µM. In addition, the “MIC S. aureus ATCC29213” value in series [2] came to 8 µM. Further, the “MIC C. coli ATCC25922” value in the series on E. coli (ATCC 25922) [6] stood at 4 µM. Besides, the “MIC C. sakazakii ATCC29544” value in [8] amounted to 8 µM. Further, the “MIC C. parapsilosis ATCC2001” value in the series on C. parapsilosis ATCC2001 worked out at 4 µM. For the same substance, the “MIC C. albicans ATCC14053” value with C. albicans ATCC14053 was found to be 4 µM. For the same substance, in series [9], the “MIC P. aerugmosa ATCC27853” value turned out to be 8 µM. Moreover, in the series on C. glabrata ATCC22019, the “MIC C. glabrata ATCC22019” value was determined as 4 µM. For the same substance, the “MIC S. epidermidis ATCC12228” value in series [12] was determined as 8 µM. Also, the “MIC B. subtilis ATCC23857” value in [13] stood at 4 µM. The “MIC C. krusei ATCC6258” value against C. krusei ATCC6258 was determined as 16 µM. For the same substance, the “MIC C. tropicalis ATCC750” value against C. tropicalis ATCC750 amounted to 4 µM. In addition, the “effect on proliferation (inhibitory activity)” value in [21], in series [22] and in [23] was “no inhibitory activity” each time.
On to Polymyxin B, for which, in the series with E. coli (ATCC 25922) [24], the “survival rate of mice” value came out at 100%.
Triton X-100 returned a hemolysis rate with mouse red blood cells of 100%.

As a reminder, the LD50 is the dose expected to kill half of the subjects tested. Broadly, the MIC is the least concentration at which growth counts as inhibited. Higher therefore signals a need for much substance.
